Each compound was assayed against C. elegans Slo-1a (Caenorhabditis elegans, UniProt Q95V25) (assay: In vitro assay 1: C. elegans Slo-1a, action at a recombinant C. elegans CHO cell line (membrane potential measurement)). Settings: CHO cells expressing C. elegans Slo-1a; voltage sensitive dye, FLIPR Tetra; negative decadic logarithm of EC50.
Sequence of C. elegans Slo-1a (Q95V25 whole entry): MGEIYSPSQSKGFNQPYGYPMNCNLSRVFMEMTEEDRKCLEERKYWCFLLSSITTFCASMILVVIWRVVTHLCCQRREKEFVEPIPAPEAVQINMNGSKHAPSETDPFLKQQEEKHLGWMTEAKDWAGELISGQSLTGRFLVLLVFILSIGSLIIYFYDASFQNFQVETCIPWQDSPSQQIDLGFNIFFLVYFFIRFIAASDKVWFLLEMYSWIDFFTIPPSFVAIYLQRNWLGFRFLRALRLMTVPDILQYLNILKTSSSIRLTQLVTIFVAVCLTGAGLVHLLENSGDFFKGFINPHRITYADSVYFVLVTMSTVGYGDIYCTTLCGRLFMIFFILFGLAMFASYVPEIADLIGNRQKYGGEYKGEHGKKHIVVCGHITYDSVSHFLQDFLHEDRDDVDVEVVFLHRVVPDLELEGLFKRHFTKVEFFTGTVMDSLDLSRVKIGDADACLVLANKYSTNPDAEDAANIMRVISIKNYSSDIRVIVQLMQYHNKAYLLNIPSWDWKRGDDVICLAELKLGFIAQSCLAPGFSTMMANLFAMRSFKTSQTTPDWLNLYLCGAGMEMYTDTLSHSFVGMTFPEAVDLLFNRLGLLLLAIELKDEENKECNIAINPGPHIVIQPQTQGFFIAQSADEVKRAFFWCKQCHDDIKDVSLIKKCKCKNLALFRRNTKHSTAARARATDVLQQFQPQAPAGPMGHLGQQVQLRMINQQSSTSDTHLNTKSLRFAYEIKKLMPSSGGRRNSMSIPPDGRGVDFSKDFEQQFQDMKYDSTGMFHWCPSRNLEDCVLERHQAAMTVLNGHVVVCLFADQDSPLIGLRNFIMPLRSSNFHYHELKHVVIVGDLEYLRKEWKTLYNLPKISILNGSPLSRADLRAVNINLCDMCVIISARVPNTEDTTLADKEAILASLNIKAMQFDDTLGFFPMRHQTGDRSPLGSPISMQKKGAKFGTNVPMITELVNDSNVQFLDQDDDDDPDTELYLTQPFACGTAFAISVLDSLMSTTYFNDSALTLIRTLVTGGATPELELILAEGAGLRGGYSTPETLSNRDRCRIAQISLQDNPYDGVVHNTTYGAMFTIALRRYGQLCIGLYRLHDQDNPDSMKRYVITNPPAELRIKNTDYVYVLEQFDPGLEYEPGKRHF

Point of comparison: `CC(C)c1c(C(=O)N[C@H]2CCOc3ccccc32)cnc2c(-c3cc(Cl)c(F)c(Cl)c3)c(C(F)F)nn12` [Example 282], pE50 8.3. Against it:
- Cc1nn2c(C(C)C)c(C(=O)N[C@H]3CCc4ccccc43)cnc2c1-c1cc(Cl)cc(Cl)c1 [Example 8] — lower, 7.5
- Cc1nn2c(C)c(C(=O)N[C@H]3CCCc4ccccc43)cnc2c1-c1ccccc1Cl [Example 9] — lower, 7.8
- Cc1nn2c(C)c(C(=O)N[C@H]3CCc4ccccc43)cnc2c1-c1ccccc1Cl [Example 14] — lower, 7.7
- Cc1nn2c(C)c(C(=O)N[C@H]3CCCc4ccccc43)cnc2c1-c1cccc(C(F)(F)F)c1 [Example 15] — lower, 6.7
- Cc1nn2c(C)c(C(=O)N[C@H]3CCc4ccccc43)cnc2c1-c1cccc(C(F)(F)F)c1 [Example 16] — lower, 6.7
- Cc1nn2c(C(C)C)c(C(=O)N[C@H]3CCCc4ccccc43)cnc2c1-c1ccccc1Cl [Example 19] — lower, 8
- Cc1nn2c(C(C)C)c(C(=O)N[C@H]3CCc4ccccc43)cnc2c1-c1ccccc1Cl [Example 20] — lower, 7.9
- CC(C)c1c(C(=O)N[C@H]2CCCc3ccccc32)cnc2c(-c3ccccc3Cl)cnn12 [Example 21] — lower, 6.5
- CC(C)c1c(C(=O)N[C@H]2CCc3ccccc32)cnc2c(-c3ccc(Cl)cc3)cnn12 [Example 23] — lower, 7.2
- CC(C)c1c(C(=O)N[C@H]2CCc3ccccc32)cnc2c(-c3ccccc3Cl)cnn12 [Example 24] — lower, 7.2
- CC(C)c1c(C(=O)N[C@H]2CCCc3ccccc32)cnc2c(-c3ccc(Cl)cc3)cnn12 [Example 25] — lower, 6.6
- Cc1nn2c(C)c(C(=O)N[C@H]3CCc4ccccc43)cnc2c1-c1ccc(Cl)cc1 [Example 27] — lower, 7.2
- Cc1nn2c(C(C)C)c(C(=O)N[C@H]3CCCc4ccccc43)cnc2c1-c1ccc(Cl)cc1 [Example 29] — lower, 6.7
- Cc1c(C(=O)N[C@H]2CCc3ccccc32)cnc2c(-c3ccc(Cl)cc3)cnn12 [Example 31] — lower, 6.7
- Cc1nn2c(C(C)C)c(C(=O)N[C@H]3CCc4ccccc43)cnc2c1-c1ccc(Cl)cc1 [Example 32] — lower, 7.5
- CC(C)c1c(C(=O)N[C@H]2CCc3ccccc32)cnc2c(-c3cccc(C(F)(F)F)c3)cnn12 [Example 37] — lower, 6.7
- CC(C)c1c(C(=O)N[C@H]2CCc3ccccc32)cnc2c(-c3cccc(Cl)c3)cnn12 [Example 40] — lower, 6.5
- Cc1c(C(=O)N[C@H]2CCCc3ccccc32)cnc2c(-c3ccc(Cl)cc3)cnn12 [Example 41] — lower, 4.8
- Cc1c(C(=O)N[C@H]2CCCc3ccccc32)cnc2c(-c3ccccc3Cl)cnn12 [Example 42] — lower, 6.2
- Cc1c(C(=O)N[C@H]2CCc3ccccc32)cnc2c(-c3ccccc3Cl)cnn12 [Example 43] — lower, 6.8
- COc1c(F)ccc(-c2c(C(F)F)nn3c(C4CC4)c(C(=O)N[C@H]4CCOc5ccccc54)cnc23)c1F [Example 269] — higher, 9
- O=C(N[C@H]1CCOc2ccccc21)c1cnc2c(-c3cccc(F)c3F)c(C(F)F)nn2c1C1CC1 [Example 270] — higher, 8.4
- O=C(N[C@H]1CCOc2ccccc21)c1cnc2c(-c3c(Cl)cccc3Cl)c(C(F)F)nn2c1C1CC1 [Example 271] — higher, 8.5
- O=C(N[C@H]1CCOc2ccccc21)c1cnc2c(-c3cc(Cl)c(F)c(Cl)c3)c(C(F)F)nn2c1C1CC1 [Example 272] — lower, 7.6
- O=C(N[C@H]1CCOc2ccccc21)c1cnc2c(-c3cccc(Cl)c3)c(C(F)F)nn2c1C1CC1 [Example 273] — the same, 8.3
- O=C(N[C@H]1CCOc2ccccc21)c1cnc2c(-c3ccc(F)c(F)c3)c(C(F)F)nn2c1C1CC1 [Example 274] — lower, 7.7
- CC(C)c1c(C(=O)N[C@H]2CCOc3ccccc32)cnc2c(-c3cccc(Cl)c3)c(Cl)nn12 [Example 275] — lower, 7.9
- CC(C)c1c(C(=O)N[C@H]2CCOc3ccccc32)cnc2c(-c3cccc(Cl)c3)c(C(F)F)nn12 [Example 276] — lower, 8
- CC(C)c1c(C(=O)N[C@H]2CCOc3ccccc32)cnc2c(-c3c(F)ccc(Cl)c3F)c(C(F)F)nn12 [Example 277] — higher, 8.8
- CC(C)c1c(C(=O)N[C@H]2CCOc3ccccc32)cnc2c(-c3ccc(F)c(F)c3)c(C(F)F)nn12 [Example 278] — lower, 7.5
- CC(C)c1c(C(=O)N[C@H]2CCOc3ccccc32)cnc2c(-c3cccc(F)c3F)c(C(F)F)nn12 [Example 279] — lower, 8.2
- O=C(N[C@H]1CCOc2ccccc21)c1cnc2c(-c3c(F)ccc(Cl)c3F)c(C(F)F)nn2c1C1CC1 [Example 280] — higher, 8.9
- Cc1nn2c(C(C)C)c(C(=O)N[C@H]3CCOc4ccccc43)cnc2c1-c1ccc(F)c(N(C)C)c1F [Example 283] — higher, 9.3
- COc1c(F)ccc(-c2c(C)nn3c(C4CC4)c(C(=O)N[C@H]4CCOc5ccccc54)cnc23)c1F [Example 284] — higher, 9.1
- CC(C)c1c(C(=O)N[C@H]2CCc3ccccc32)cnc2c(-c3cccc(F)c3F)c(Cl)nn12 [Example 285] — lower, 8
- CC(C)c1c(C(=O)N[C@H]2CCCc3ccccc32)cnc2c(-c3cccc(F)c3F)c(Cl)nn12 [Example 286] — lower, 7.9
- CCc1c(C(=O)N[C@H]2CCOc3ccccc32)cnc2c(-c3cccc(F)c3F)c(C)nn12 [Example 477] — lower, 8.2
- CCc1c(C(=O)N[C@H]2CCOc3ccccc32)cnc2c(-c3c(F)cccc3Cl)c(C)nn12 [Example 479] — lower, 8.2
- Cc1nn2c(C3CC3)c(C(=O)N[C@H]3CCOc4ccccc43)cnc2c1-c1cccc(Cl)c1F [Example 480] — higher, 8.9
- Cc1nn2c(C(C)C)c(C(=O)N[C@H]3CCOc4ccccc43)cnc2c1-c1cccc2[nH]ccc12 [Example 481] — lower, 7.7
- COc1c(F)cc(F)c(-c2c(C)nn3c(C4CC4)c(C(=O)N[C@H]4CCOc5ccccc54)cnc23)c1F [Example 482] — higher, 9.2
- Cc1nn2c(C(C)C)c(C(=O)N[C@H]3CCOc4ccccc43)cnc2c1-c1cccc2c1ccn2C [Example 483] — lower, 7.8
- CCc1c(C(=O)N[C@H]2CCOc3ccccc32)cnc2c(-c3cccc(Cl)c3Cl)c(C)nn12 [Example 484] — higher, 8.6
- CCc1c(C(=O)N[C@H]2CCOc3ccccc32)cnc2c(-c3ccc(Cl)cc3Cl)c(C)nn12 [Example 485] — lower, 8.2
- CCc1c(C(=O)N[C@H]2CCOc3ccccc32)cnc2c(-c3cc(Cl)ccc3Cl)c(C)nn12 [Example 486] — higher, 8.4
- CCc1c(C(=O)N[C@H]2CCOc3ccccc32)cnc2c(-c3ccc(F)c(F)c3)c(C)nn12 [Example 487] — lower, 7.7
- CCc1c(C(=O)N[C@H]2CCOc3ccccc32)cnc2c(-c3cccc(Cl)c3)c(C)nn12 [Example 488] — lower, 8.2
- CCc1c(C(=O)N[C@H]2CCOc3ccccc32)cnc2c(-c3ccc(F)c(F)c3F)c(C)nn12 [Example 490] — the same, 8.3
- CCc1c(C(=O)N[C@H]2CCOc3ccccc32)cnc2c(-c3c(Cl)cccc3Cl)c(C)nn12 [Example 491] — the same, 8.3
- O=C(N[C@H]1CCOc2ccccc21)c1cnc2c(-c3cc(Cl)ccc3Cl)c(C(F)F)nn2c1C1CC1 [Example 492] — higher, 8.9
- O=C(N[C@H]1CCOc2ccccc21)c1cnc2c(-c3c(F)cccc3F)c(C(F)F)nn2c1C1CC1 [Example 493] — higher, 8.7
- CC(C)c1c(C(=O)N[C@H]2CCOc3ccccc32)cnc2c(-c3cc(Cl)ccc3Cl)c(C(F)F)nn12 [Example 494] — higher, 8.5
- CC(C)c1c(C(=O)N[C@H]2CCOc3ccccc32)cnc2c(-c3c(F)cccc3F)c(C(F)F)nn12 [Example 495] — the same, 8.3
- CCc1c(C(=O)N[C@H]2CCOc3ccccc32)cnc2c(-c3ccc(F)c(OC)c3F)c(C)nn12 [Example 496] — higher, 8.9
- CCc1c(C(=O)N[C@H]2CCOc3ccccc32)cnc2c(-c3cc(Cl)c(F)c(Cl)c3)c(C)nn12 [Example 497] — lower, 8
- O=C(N[C@H]1CCOc2ccccc21)c1cnc2c(-c3ccc(F)c(F)c3F)c(C(F)F)nn2c1C1CC1 [Example 498] — the same, 8.3
- O=C(N[C@H]1CCOc2ccccc21)c1cnc2c(-c3c(F)cccc3Cl)c(C(F)F)nn2c1C1CC1 [Example 499] — higher, 8.5
- CC(C)c1c(C(=O)N[C@H]2CCOc3ccccc32)cnc2c(-c3ccc(F)c(F)c3)c(Cl)nn12 [Example 500] — lower, 7.7
- Cc1nn2c(C3CC3)c(C(=O)N[C@H]3CCOc4ccccc43)cnc2c1-c1cccc(O)c1 [Example 501] — lower, 6.3
- COc1c(F)ccc(-c2c(C(F)F)nn3c(C(C)C)c(C(=O)N[C@H]4CCOc5ccccc54)cnc23)c1F [Example 502] — higher, 8.6
- CC(C)c1c(C(=O)N[C@H]2CCOc3ccccc32)cnc2c(-c3c(Cl)cccc3Cl)c(C(F)F)nn12 [Example 503] — lower, 7.9
- Cc1nn2c(C3CC3)c(C(=O)N[C@H]3CCOc4ccccc43)cnc2c1-c1cc(C(F)(F)F)ccc1F [Example 504] — higher, 8.9
- CC(C)c1c(C(=O)N[C@H]2CCOc3ccccc32)cnc2c(-c3cccc(Cl)c3Cl)c(C(F)F)nn12 [Example 505] — higher, 8.5
- CC(C)c1c(C(=O)N[C@H]2CCOc3ccccc32)cnc2c(-c3c(F)cccc3Cl)c(C(F)F)nn12 [Example 506] — lower, 8.1
- CC(C)c1c(C(=O)N[C@H]2CCOc3ccccc32)cnc2c(-c3ccc(Cl)cc3Cl)c(C(F)F)nn12 [Example 507] — lower, 8.1
- CC(C)c1c(C(=O)N[C@H]2CCOc3ccccc32)cnc2c(-c3ccc(F)c(F)c3F)c(C(F)F)nn12 [Example 508] — lower, 8.2
- Cc1nn2c(C3CC3)c(C(=O)N[C@H]3CCOc4ccccc43)cnc2c1-c1cc(C(F)(F)F)ccc1Cl [Example 509] — higher, 8.9
- Cc1nn2c(C3CC3)c(C(=O)N[C@H]3CCOc4ccccc43)cnc2c1-c1cccc2c1CCO2 [Example 510] — higher, 8.6
- O=C(N[C@H]1CCOc2ccccc21)c1cnc2c(-c3ccc(Cl)cc3Cl)c(C(F)F)nn2c1C1CC1 [Example 511] — higher, 8.4
- O=C(N[C@H]1CCOc2ccccc21)c1cnc2c(-c3cccc(Cl)c3Cl)c(C(F)F)nn2c1C1CC1 [Example 512] — higher, 8.9

Reference: patent publication US11001590B2, “Pyrazolopyrimidine derivatives” (BAYER ANIMAL HEALTH GMBH, priority 2016, dated 2021)
